From US20230213511A1, “METHOD FOR EVALUATING ALLERGEN INACTIVATORS AND KIT FOR EVALUATING ALLERGEN INACTIVATORS” (SCHOOL CORPORATION, AZABU VETERINARY MEDICINE EDUCATIONAL …, priority 2020, published 2023)

What was measured:
[1] = target: T1, purified mite allergens "Der f1" (Dermatophagoides farinae, UniProt P16311); assay: Immunostaining of purified mite allergens supported on a PVDF membrane after treatment using the test drug; assay type: biochemical; settings: two hours at normal temperature, vs PBS (−); for capacity for recognition by the specific antibodies (anti-Der f1 monoclonal antibodies), immunostaining: 5 ppm Bi-jia water, 5 ppm sodium hypochlorite, 6M guanidine; for properties enabling recognition by the specific antibodies (anti-Der f1 monoclonal antibodies), immunostaining: test example 3, 30 v/v % hydrogen peroxide water, 10 mM hydrochloric acid (pH 2)
T1 construct: purchased ITEA Inc
T1 sequence (P16311 99-321): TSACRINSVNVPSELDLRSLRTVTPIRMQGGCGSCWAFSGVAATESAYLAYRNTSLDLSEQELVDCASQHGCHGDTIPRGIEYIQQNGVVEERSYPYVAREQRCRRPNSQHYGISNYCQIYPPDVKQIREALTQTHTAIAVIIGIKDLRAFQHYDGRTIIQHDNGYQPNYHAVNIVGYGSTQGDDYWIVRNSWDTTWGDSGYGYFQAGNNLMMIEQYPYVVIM
Procedure: (3-1. PVDF membrane) • A PVDF membrane (pore diameter: 0.45 μm) was immersed in methanol to be made hydrophilic, after which a prescribed quantity of allergens was blotted onto the PVDF membrane in a dot formation (0-100 ng/dot).
(4. Treatment using test drug) • The allergen-supporting membrane was washed three times using PBS (−). • The membrane was placed in a plastic container and immersed in 5 mL of a solution containing the test drug. • The membrane was allowed to stand for two hours at normal temperature. • The solution of the test drug was discarded, and the membrane was washed three times using PBS (−). • Protein staining or immunostaining was carried out.
(6. Immunostaining) • The allergen-supporting membrane (after “4. Treatment using test drug” described above) was immersed in 1 w/v % gelatin-containing PBS and was blocked for ten minutes at 37° C. • The blocking liquid was discarded, and the membrane was washed three times using PBS (−). • Primary antibodies were diluted using 1 w/v % BSA-containing PBST (0.02 v/v % Tween-20) so as to reach a concentration of 1 μg/mL, 2 mL of the primary antibodies was added to the blocked membrane, and a reaction was carried out for 30 minutes at normal temperature while the membrane was shaken. • A primary antibody reaction solution was discarded, and the membrane was washed three times using PBST. • HRP-labeled secondary antibodies (product name “HRP-Goat anti-Mouse IgG,” made by Zymed Laboratories) were diluted using 1 w/v % BSA-containing PBST (0.02 v/v % Tween-20) so as to reach a concentration of 3 μg/mL, 2 mL of the secondary antibodies was added to the membrane reacted with the primary antibodies, and a reaction was carried out for 30 minutes at normal temperature while the membrane was shaken. • A secondary antibody reaction solution was discarded, and the membrane was washed four times using PBST. • An amount of 1 mL of a coloring reagent solution (product name “Ez West Blue,” made by ATTO Co., Ltd.) was added to the membrane reacted with the secondary antibodies, and a reaction was carried out for ten minutes. • The membrane was washed using a large amount of distilled water, and the reaction was stopped. • The membrane was allowed to spontaneously dry.
(§1) Specifically, purified mite allergens were dot-blotted in an amount of 0, 12.5, 25, 50, or 100 ng onto a single PVDF membrane cut into a rectangular strip to produce an allergen-supporting membrane. Two identical allergen-supporting membranes were provided in this manner. First, the two allergen-supporting membranes were treated using the same test drug, a washing treatment using PBS was furthermore carried out, and then one of the treated membranes was supplied for protein staining using the gold stain and the other of the treated membranes was supplied for immunostaining using the anti-Der f1 monoclonal antibodies.
as §1, with “4, 20,” for “12.5, 25, 50,”, “antibodies. […]” for “antibodies.”

[2] = target: T2, purified Japanese cedar pollen allergens "Cry j1" (Cryptomeria japonica, UniProt P18632); assay: Immunostaining of Cry j1 on multiscreen filter plate with PVDF filter membrane after treatment using the test drug; assay type: biochemical; settings: test example 9, two hours at normal temperature, 0.1% SDS, 6M guanidine, other drugs of FIG. 16, vs PBS
T2 construct: purchased ITEA Inc
T2 sequence (P18632 22-374): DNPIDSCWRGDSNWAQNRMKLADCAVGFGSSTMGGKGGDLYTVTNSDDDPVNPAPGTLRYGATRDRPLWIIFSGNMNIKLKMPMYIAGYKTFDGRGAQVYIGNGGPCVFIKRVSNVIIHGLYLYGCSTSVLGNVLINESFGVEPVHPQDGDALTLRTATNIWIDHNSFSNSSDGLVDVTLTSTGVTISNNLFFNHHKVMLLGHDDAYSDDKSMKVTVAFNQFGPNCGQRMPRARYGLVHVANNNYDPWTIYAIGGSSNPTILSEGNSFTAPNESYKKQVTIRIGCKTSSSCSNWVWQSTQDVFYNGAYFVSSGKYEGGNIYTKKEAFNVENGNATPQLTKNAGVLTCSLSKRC
From the text: […]

[3] = target: T2, purified Japanese cedar pollen allergens "Cry j1"; assay: Immunostaining of Cry j1 on multiscreen filter plate with cellulose mixed ester filter membrane after treatment using the test drug; assay type: biochemical; settings: test example 8, two hours at normal temperature, 5 ppm NaClO (Bi-jia water), 6M guanidine, other drugs of FIG. 15, vs PBS
Procedure: A test for evaluating allergen inactivators was conducted using, as an allergen support, a multiscreen filter plate (MultiScreen HTS HA sterile plate, Millipore, #MSHAS4510) provided with a filter membrane composed of a cellulose mixed ester (substance similar to nitrocellulose) in each well. Specifically, as per the main points of the operational procedure for the test shown in FIG. 6, a test was conducted in accordance with the following protocol.
(1. Formulation of Allergen-Supporting Membrane and Treatment Carried Out Using Test Drug) • An amount of 2 μL of purified Japanese cedar pollen allergens (product name “Cry j1”) (made by ITEA Inc.) (origin: Japanese cedar (Cryptomeria japonica)) in each stage of dilution (50, 10, 2, or 0 ng/μL) was added dropwise into each well of the multiscreen filter plate and was allowed to spontaneously dry. • Filtration washing was carried out three times using 200 μL of PBS. • An amount of 200 μL of the drugs being examined (the various drugs being examined, and concentrations thereof, shown in FIG. 15; PBS as a control) was added, and the multiscreen filter plate was allowed to stand for two hours at normal temperature. • The drugs being examined were removed through pipetting. • Filtration washing was carried out three times using 200 μL of PBS. • To immunostaining or gold staining […]

[4] = tested on: extract from the grass Phleum pratense, the weed Plantago lanceolata, or house dust containing Dermatophagoides pteronyssinus; settings: extract treated using a 1% aqueous solution of tannic acid; cited from earlier work
[5] = test example 2, PVDF membrane, 0, 4, 20, 100 ng/dot, 0.1 w/v % SDS
[6] = PVDF membrane, 0, 4, 20, 100 ng/dot

Row | SMILES | capacity for recognition by the specific antibodies (anti-Der f1 monoclonal antibodies), immunostaining [1, 5] | capacity for recognition by the specific antibodies (anti-Cry j1 monoclonal antibodies), immunostaining [2] | properties enabling recognition by the specific antibodies (anti-Der f1 monoclonal antibodies), immunostaining [1, 6] | other results
1 | CCCCCCCCCCCCOS(=O)(=O)[O-].[Na+] [SDS] | notably weakened | notably weakened | – | –
2 | N=C(N)N [guanidine] | – | notably weakened | – | capacity for recognition by the specific antibodies (anti-Cry j1 monoclonal antibodies), immunostaining [3]: notably weakened
3 | Cl [hydrochloric acid] | – | – | weakened | –
4 | OO [hydrogen peroxide water, hydrogen peroxide] | – | – | weakened | –
5 | OCl [sodium hypochlorite] | notably weakened | – | – | capacity for recognition by the specific antibodies (anti-Der f1 monoclonal antibodies), immunostaining ([1]; test example 1, PVDF membrane, 0-100 ng/dot): notably weakened
6 | O=C(OC[C@H]1O[C@@H](OC(=O)c2cc(O)c(O)c(OC(=O)c3cc(O)c(O)c(O)c3)c2)[C@H](OC(=O)c2cc(O)c(O)c(OC(=O)c3cc(O)c(O)c(O)c3)c2)[C@@H](OC(=O)c2cc(O)c(O)c(OC(=O)c3cc(O)c(O)c(O)c3)c2)[C@@H]1OC(=O)c1cc(O)c(O)c(OC(=O)c2cc(O)c(O)c(O)c2)c1)c1cc(O)c(O)c(OC(=O)c2cc(O)c(O)c(O)c2)c1 [tannic acid] | – | – | – | allergenicity in a cutaneous reaction test [4]: allergenicity can be mitigated
